This data set can be described thus: recombinant barcode read abundance after kanamycin selection (control-corrected) (log10(CPM+1)); higher = more efficient recombination; sequences stand for … in AGTGCAGAGAAAATCGGCCAGTTTTCTCTGCCTGCAGTCCGCATGCCGT…AGATTTATGCAGCGGACTGCCTTTCTCCCAAAGTGATAAACCGGACAGTATCATGGACCGGTTTTCCCGGTAATCCGTATTTGCAAGGTTGGTTTCACT; site = the 11-nt target. In outline:
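The screen was pooled in E. coli and paired targets with IS621 bridge RNA target-binding loops. Recombination efficiency is taken from barcode counts per million at recombinant junctions, averaged and adjusted against the control. Values, in the form log10(CPM+1), come from duplicate plating on chloramphenicol/ampicillin LB agar or on chloramphenicol/ampicillin/kanamycin with 0.1 mM IPTG.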
For “TCGAAACCTTGGGTTCTAACCTGTTGCCT (site TCGAACCCTAG)”, the “recombinant barcode read abundance (log10)” value came to 0.0112.
The value for “TCGAAACCTTGGGTTCTAACCTGTTGCCT (site TCGAAGCCTAG)” was 0.132; that for “TCGAAACCTTGGGTTCTAACCTGTTGCCT (site TCGAATCCTAG)” was 0.0362; that for “TCGAAGACTTGGGTTCTAACCTGTTGCCA (site CCGAAGACTAG)” was 0.14.
Take “TCGAAGACTTGGGTTCTAACCTGTTGCCA (site TCGAAGACTTG)”: the “recombinant barcode read abundance (log10)” value came out at 0.177.
For “TCGAGTACTTGGGTTCTAACCTGTTGCCT (site TCGAGTACTAG)”, the “recombinant barcode read abundance (log10)” value came out at 0.274.
“TCGAGTACTTGGGTTCTAACCTGTTGCCT (site TCGAGTCCTAG)”: the “recombinant barcode read abundance (log10)” value came out at 0.168.
Regarding “TCGAGTACTTGGGTTCTAACCTGTTGCCT (site TCGAGTGCTAG)”, the “recombinant barcode read abundance (log10)” value was 0.034.
The figure for “TCGAGTACTTGGGTTCTAACCTGTTGCCT (site TCGAGTTCTAG)” is 0.404; for “TCGATGTCTTGGGTTCTAACCTGTTGCCT (site TCGAATTCTAG)” it is 0.174; for “TCGATGTCTTGGGTTCTAACCTGTTGCCT (site TCGATGTCTAG)” it is 0.706.
As for “TCGCAAGCTTGGGTTCTAACCTGTTGCCT (site TCGCAAGCTAG)”, the “recombinant barcode read abundance (log10)” value worked out at 0.559.
The figure for “TCGCAAGCTTGGGTTCTAACCTGTTGCCT (site TCTCCAGCTAG)” is 0.43; for “TCGCACCCTTGGGTTCTAACCTGTTGCGA (site TCGAACCCTTC)” it is 1.28.
The value for “TCGCACCCTTGGGTTCTAACCTGTTGCGA (site TCGCACCCTTC)” was 0.571.
For the sequence “TCGCACCCTTGGGTTCTAACCTGTTGCGA (site TCGGACCCTTC)”, the “recombinant barcode read abundance (log10)” value is 0.369.
The figure for “TCGCACCCTTGGGTTCTAACCTGTTGCGA (site TCGTACCCTTC)” is 0.514; for “TCGCACGCTTGGGTTCTAACCTGTTGCCT (site TCGCACGCTAG)” it is 0.205.
In the case of “TCGCACGCTTGGGTTCTAACCTGTTGCCT (site TCTCACGCTAG)”, the “recombinant barcode read abundance (log10)” value is 0.541.
The figure for “TCGCACTCTTGGGTTCTAACCTGTTGCCT (site TCACACTCTAG)” is 1.22; for “TCGCACTCTTGGGTTCTAACCTGTTGCCT (site TCCCACTCTAG)” it is 0.22.
On to “TCGCACTCTTGGGTTCTAACCTGTTGCCT (site TCGCACTCTAG)”, for which the “recombinant barcode read abundance (log10)” value turned out to be 0.0694.
The figure for “TCGCACTCTTGGGTTCTAACCTGTTGCCT (site TCTCACTCTAG)” is 0.117; for “TCGCACTCTTGGGTTCTAACCTGTTGCTA (site TCGCACACTTA)” it is 0.262; for “TCGCACTCTTGGGTTCTAACCTGTTGCTA (site TCGCACTCTTA)” it is 0.911.
As for “TCGCCTACTTGGGTTCTAACCTGTTGCCT (site TCGCCTACTAG)”, the “recombinant barcode read abundance (log10)” value amounted to 0.049.
With “TCGCCTACTTGGGTTCTAACCTGTTGCCT (site TCGCCTGCTAG)”, the “recombinant barcode read abundance (log10)” value stood at 0.396.
The value for “TCGCCTTCTTGGGTTCTAACCTGTTGCCT (site TAGCCTTCTAG)” was 0.482; that for “TCGCCTTCTTGGGTTCTAACCTGTTGCCT (site TCGCCTTCTAG)” was 0.364.
The value for “TCGCCTTCTTGGGTTCTAACCTGTTGCCT (site TGGCCTTCTAG)” was 0.654; that for “TCGCCTTCTTGGGTTCTAACCTGTTGCCT (site TTGCCTTCTAG)” was 0.0934.
The value for “TCGCGGCCTTGGGTTCTAACCTGTTGCCT (site ACGCGGCCTAG)” was 0.153; that for “TCGCGGCCTTGGGTTCTAACCTGTTGCCT (site CCGCGGCCTAG)” was 0.105.
Regarding “TCGCGGCCTTGGGTTCTAACCTGTTGCCT (site GCGCGGCCTAG)”, the “recombinant barcode read abundance (log10)” value came out at 0.1.
In the case of “TCGCGGCCTTGGGTTCTAACCTGTTGCCT (site TCGCGGCCTAG)”, the “recombinant barcode read abundance (log10)” value was 0.0408.
Regarding “TCGCGTCCTTGGGTTCTAACCTGTTGCCG (site ACGCGTCCTCG)”, the “recombinant barcode read abundance (log10)” value was 0.116.
The figure for “TCGCGTCCTTGGGTTCTAACCTGTTGCCG (site TCGCGTCCTCG)” is 1.41.
For the sequence “TCGCTAGCTTGGGTTCTAACCTGTTGCGG (site CCGCTACCTCC)”, the “recombinant barcode read abundance (log10)” value is 1.83.
The figure for “TCGCTAGCTTGGGTTCTAACCTGTTGCGG (site TCGCTAGCTCC)” is 0.657.
As for “TCGGACACTTGGGTTCTAACCTGTTGCCA (site TCGGACACTTG)”, the “recombinant barcode read abundance (log10)” value was determined as 1.89.
The value for “TCGGACACTTGGGTTCTAACCTGTTGCCA (site TGGGACTCTTG)” was 0.0505; that for “TCGGAGGCTTGGGTTCTAACCTGTTGCTG (site TCAGAGGCTCA)” was 0.774.
The value for “TCGGAGGCTTGGGTTCTAACCTGTTGCTG (site TCCGAGGCTCA)” was 0.325; that for “TCGGAGGCTTGGGTTCTAACCTGTTGCTG (site TCGGAGGCTCA)” was 0.442; that for “TCGGAGGCTTGGGTTCTAACCTGTTGCTG (site TCTGAGGCTCA)” was 0.374.
Take “TCGGAGTCTTGGGTTCTAACCTGTTGCCT (site TCGGAGTCTAA)”: the “recombinant barcode read abundance (log10)” value came out at 0.128.
The value for “TCGGAGTCTTGGGTTCTAACCTGTTGCCT (site TCGGAGTCTAC)” was 1.06.
For “TCGGAGTCTTGGGTTCTAACCTGTTGCCT (site TCGGAGTCTAG)”, the “recombinant barcode read abundance (log10)” value stood at 2.23.
The value for “TCGGAGTCTTGGGTTCTAACCTGTTGCCT (site TCGGAGTCTAT)” was 0.503; that for “TCGGATACTTGGGTTCTAACCTGTTGCCA (site TAGGACACTTG)” was 0.0618.
Regarding “TCGGATACTTGGGTTCTAACCTGTTGCCA (site TCGGATACTTG)”, the “recombinant barcode read abundance (log10)” value is 0.456.
Consider “TCGGCCTCTTGGGTTCTAACCTGTTGCTA (site CGTCTAGCTAT)”, for which the “recombinant barcode read abundance (log10)” value is 0.054.
Regarding “TCGGCCTCTTGGGTTCTAACCTGTTGCTA (site TCGGCCTCTTA)”, the “recombinant barcode read abundance (log10)” value came to 0.877.
The figure for “TCGGCGACTTGGGTTCTAACCTGTTGCCT (site TCAGCGACTAG)” is 0.11.
The figure for “TCGGCGACTTGGGTTCTAACCTGTTGCCT (site TCCGCGACTAG)” is 0.0866.
Consider “TCGGCGACTTGGGTTCTAACCTGTTGCCT (site TCGGCGACTAG)”, for which the “recombinant barcode read abundance (log10)” value came out at 0.0143.
As to “TCGGCGACTTGGGTTCTAACCTGTTGCCT (site TCTGCGACTAG)”, the “recombinant barcode read abundance (log10)” value came out at 0.291.
The value for “TCGGGAACTTGGGTTCTAACCTGTTGCCT (site TCGCGAACTAG)” was 0.502.
For the sequence “TCGGGAACTTGGGTTCTAACCTGTTGCCT (site TCGGGAACTAG)”, the “recombinant barcode read abundance (log10)” value amounted to 0.34.
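Note: IS621 recombinase and bridge RNA in Escherichia coli cells.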
